ChEMBL document CHEMBL1143705, “Cytotoxic dibromotyrosine-derived metabolites from the sponge Aplysina gerardogreeni” (2007)

How the values were obtained:
Type in all cases: functional
Conditions in all cases: for CC50: read-out: LC50 (the source's name)
A549 = assay: Cytotoxicity against human A549 cells by SRB assay
HT-29 = assay: Cytotoxicity against human HT29 cells by SRB assay
MDA-MB-231 = assay: Cytotoxicity against human MDA-MB-231 cells by SRB assay

Row | SMILES | GI50 (A549) | TGI (A549) | CC50 (A549) | GI50 (HT-29) | TGI (HT-29) | CC50 (HT-29) | GI50 (MDA-MB-231) | TGI (MDA-MB-231) | CC50 (MDA-MB-231)
1 | COC1=C(Br)[C@H](O)[C@@]2(C=C1Br)CC(C(=O)NCCCCCNC(=O)C1=NO[C@]3(C=C(Br)C(=O)[C@@H]4O[C@@H]43)C1)=NO2 [APLYSINONE C] | 10.7 µM | > 10 mg/L | > 10 mg/L | 12.6 µM | > 10 mg/L | > 10 mg/L | 5.6 µM | 5.8 µM | 6.4 µM
2 | COC1=C(Br)[C@H](O)[C@@]2(C=C1Br)CC(C(=O)NCCCCCNC(=O)C1=NO[C@]3(C=C(Br)C(=O)[C@@H](Br)[C@@H]3O)C1)=NO2 [APLYSINONE A] | 4.5 µM | 7.1 µM | > 10 mg/L | 2.8 µM | 4.8 µM | 9.1 µM | 3.3 µM | 5.4 µM | 8.2 µM
3 | COC1=C(Br)[C@H](O)[C@@]2(C=C1Br)CC(C(=O)NCCCCNC(=O)C1=NO[C@]3(C=C(Br)C(=O)[C@H](Br)[C@@H]3O)C1)=NO2 | 5.6 µM | > 10 mg/L | > 10 mg/L | 3.4 µM | 4.9 µM | 8.5 µM | 2.9 µM | 4.7 µM | 8 µM
4 | COC1=C(Br)[C@H](O)[C@@]2(C=C1Br)CC(C(=O)NCCCCCNC(=O)C1=NO[C@]3(C=C(Br)C(=O)[C@H](Br)[C@@H]3O)C1)=NO2 | 5.4 µM | 8.7 µM | 11.2 µM | 4.8 µM | 5 µM | 5.4 µM | 3.5 µM | 4.9 µM | 6.7 µM
5 | COC1=C(Br)[C@H](O)[C@@]2(C=C1Br)CC(C(=O)NCCCCNC(=O)C1=NO[C@]3(C=C(Br)C(OC)=C(Br)[C@@H]3O)C1)=NO2 [AEROTHIONIN] | > 10 mg/L | > 10 mg/L | > 10 mg/L | > 10 mg/L | > 10 mg/L | > 10 mg/L | > 10 mg/L | > 10 mg/L | > 10 mg/L
6 | O=C(NCCCCCNC(=O)C1=NO[C@]2(C=C(Br)C(=O)[C@@H](Br)[C@@H]2O)C1)C1=NO[C@]2(C=C(Br)C(=O)[C@@H](Br)[C@@H]2O)C1 [APLYSINONE B] | 2 µM | 2.9 µM | 4.1 µM | 1.5 µM | 2.1 µM | 3 µM | 1.6 µM | 2.1 µM | 3 µM
7 | COC1(OC)C(Br)=C[C@@]2(CC(C(=O)NCCCCCNC(=O)C3=NO[C@]4(C=C(Br)C(OC)(OC)[C@@H](Br)[C@@H]4O)C3)=NO2)[C@@H](O)[C@@H]1Br | > 10 mg/L | > 10 mg/L | > 10 mg/L | > 10 mg/L | > 10 mg/L | > 10 mg/L | > 10 mg/L | > 10 mg/L | > 10 mg/L
8 | O=C(NCCCCCNC(=O)C1=NO[C@]2(C=C(Br)C(=O)[C@H](Br)[C@@H]2O)C1)C1=NO[C@]2(C=C(Br)C(=O)[C@H](Br)[C@@H]2O)C1 | 2.4 µM | 3.5 µM | 5.5 µM | 1.6 µM | 2.5 µM | 3.7 µM | 1.7 µM | 2.4 µM | 3.5 µM
9 | COC1=C(Br)[C@H](O)[C@@]2(C=C1Br)CC(C(=O)NCCCCCNC(=O)C1=NO[C@]3(C=C(Br)C(OC)=C(Br)[C@@H]3O)C1)=NO2 [HOMOAEROTHIONIN] | > 10 mg/L | > 10 mg/L | > 10 mg/L | > 10 mg/L | > 10 mg/L | > 10 mg/L | > 10 mg/L | > 10 mg/L | > 10 mg/L
10 | COc1cccc2c1C(=O)c1c(O)c3c(c(O)c1C2=O)C[C@@](O)(C(=O)CO)C[C@@H]3O[C@H]1C[C@H](N)[C@H](O)[C@H](C)O1 [DOXORUBICIN] | 0.1 µM | 0.2 µM | 1 µM | 0.1 µM | 0.3 µM | 0.4 µM | 0.1 µM | 0.3 µM | 1.4 µM
11 | COC1=C(Br)[C@H](O)[C@@]2(C=C1Br)CC(C(=O)NCCCCCNC(=O)C1=NO[C@]3(C=C(Br)C(OC)(OC)[C@@H](Br)[C@@H]3O)C1)=NO2 | 7.1 µM | > 10 mg/L | > 10 mg/L | 4.8 µM | > 10 mg/L | > 10 mg/L | 4.2 µM | 6 µM | 9.6 µM
12 | COC1=C(Br)[C@H](O)[C@@]2(C=C1Br)CC(C(=O)NCCCCNC(=O)C1=NO[C@]3(C=C(Br)C(=O)[C@@H](Br)[C@@H]3O)C1)=NO2 [APLYSINONE D] | 5.7 µM | > 10 mg/L | > 10 mg/L | 4.1 µM | 5.2 µM | 11.3 µM | 3.5 µM | 5 µM | 7.6 µM
